US8916131B2, “Radiopharmaceutical composition” (GE Healthcare Limited, priority 2007, dated 2014)

Tests used:
[1] = Loss of Compound 1 to dispensing kit components (syringe, silicone tube, hard tube, filter), evaluated by HPLC; format: physicochemical; conditions: 7% v/v ethanol
Protocol: Solutions were prepared containing 7% v/v ethanol in 0.01 M sodium phosphate buffer at pH 7.4, 75 μg of Compound 1 and either (i) 12% v/v propylene glycol (PG) or (ii) 10% v/v polyethylene glycol 400 (PEG 400). Percentage loss of Compound 1 to various components of a dispensing kit was evaluated by High Performance Liquid Chromatography (HPLC) in the following experiments: […]

[2] = Compound 1 adsorption (loss) to various silicone tubings with polysorbate 80; format: physicochemical
Protocol: Solutions were prepared containing 7% v/v ethanol in 10 mM sodium phosphate buffer at pH 7.4, 75 μg of Compound 1 and selected v/v % amounts of polysorbate 80. Various silicone tubing types were tested as follows: [table] The percentage loss of Compound 1 onto the tubing was calculated in each experiment. Fluorine was assayed before and after the passage through tubing, and the results were as follows: […]

CNc1ccc(-c2nc3ccc(O)cc3s2)cc1[18F] [Compound 1, 2-[3-[^18F]fluoro-4-(methylamino)phenyl]-6-hydroxy-benzothiazole]
% loss ([1]; 10% v/v PEG 400, filter, 11 sec, 9.5 ml, 0.01 M phosphate pH 7.4): 51%
% loss ([1]; 10% v/v PEG 400, hard tube, 5 min 4 sec, ~2-2.5 ml, 0.01 M phosphate pH 7.4): 4%
% loss ([1]; 10% v/v PEG 400, silicone tube, 2 min 2 sec, ~1-1.5 ml, 0.01 M phosphate pH 7.4): 8%
% loss ([1]; 10% v/v PEG 400, syringe, 1 min 1 sec, 9.5 ml, 0.01 M phosphate pH 7.4): 1%
% loss ([1]; 12% v/v PG, filter, 10 sec, 9.5 ml, 0.01 M phosphate pH 7.4): 87%
% loss ([1]; 12% v/v PG, hard tube, 5 min 2 sec, ~2-2.5 ml, 0.01 M phosphate pH 7.4): 3%
% loss ([1]; 12% v/v PG, silicone tube, 2 min 23 sec, ~1-1.5 ml, 0.01 M phosphate pH 7.4): 30%
% loss ([1]; 12% v/v PG, syringe, 1 min 4 sec, 9.5 ml, 0.01 M phosphate pH 7.4, 75 μg Compound 1): 0%
% Loss Compound 1 ([2]; Experiment 1: 0.8 × 4.0 Pt-cured silicone tubing, polysorbate 80 0 v/v %, 2 min 0 sec, 350 μl): 63%
% Loss Compound 1 ([2]; Experiment 2: 1.6 × 4.8 Pt-cured silicone tubing, polysorbate 80 0 v/v %, 2 min 7 sec, 1400 μl): 41%
% Loss Compound 1 ([2]; Experiment 3: 1.6 × 4.8 Perox-cured silicone tubing, polysorbate 80 0 v/v %, 2 min 6 sec, 1400 μl): 45%
% Loss Compound 1 ([2]; Experiment 4: 0.8 × 4.0 Pt-cured silicone tubing, polysorbate 80 1 v/v %, 2 min 3 sec, 350 μl): 0%
% Loss Compound 1 ([2]; Experiment 5: 1.6 × 4.8 Pt-cured silicone tubing, polysorbate 80 1 v/v %, 2 min 10 sec, 1400 μl): 1%
% Loss Compound 1 ([2]; Experiment 6: 1.6 × 4.8 Perox-cured silicone tubing, polysorbate 80 1 v/v %, 2 min 4 sec, 1400 μl): 0%
% Loss Compound 1 ([2]; Experiment 7: 0.8 × 4.0 Pt-cured silicone tubing, polysorbate 80 5 v/v %, 2 min 2 sec, 350 μl): 0%
% Loss Compound 1 ([2]; Experiment 8: 1.6 × 4.8 Pt-cured silicone tubing, polysorbate 80 5 v/v %, 2 min 4 sec, 1400 μl): 1%
% Loss Compound 1 ([2]; Experiment 9: 1.6 × 4.8 Perox-cured silicone tubing, polysorbate 80 5 v/v %, 2 min 1 sec, 1400 μl): 1%
